{"source": "patent US9757393B2", "about": "(priority 2015, dated 2017)", "key": {"SREBP1c mRNA": {"test_system": "SREBP1c mRNA", "test": "Semiquantitative RT-PCR, liver tissue: SREBP1c", "assay_type": "in vivo, C57BL/6J mice", "details": "HFD-fed mice", "description": "(§1) Experimental Animals: the experiments are conducted under the guidelines of the Institutional Animal Care and Use Committee of Central Taiwan University of Science and Technology. As previously described, four-week-old male C57BL/6J mice (n=63) is purchased from the National Laboratory Animal Breeding and Research Center, Ministry of Science and Technology. After 1-week of acclimatization, mice are designed to initiate the study, and the study lasts for 12 weeks. […] The CON group and high-fat control (HF) group are given with vehicle only. The low-fat diet consisted of fat 10%, whereas the high-fat diet (HFD) consisted of fat 45% (of total energy, % kcal). The compositions of the experimental diets are shown as described. At the end of the study, food is derived from the animals (from 10 p.m. to 10 a.m.). On the next day, the mice are sacrificed, and blood and tissue are collected for analysis. Livers, skeletal muscles, and white adipose tissues (WATs) (including epididymal, mesenteric and retroperitoneal WAT) are excised and weighed, and then immediately stored in a freezer at −80° C. Heparin (30 units/mL) (Sigma) is added to blood samples. Plasma samples are collected by centrifugation at 1600 g for 15 min at 4° C. within 30 min, and plasma is obtained for insulin and leptin level analysis.\nThe experiment is performed as in a previously described protocol. Total RNA from the liver tissue is isolated with a Trizol reagent (Molecular Research Center, Inc., Cincinnati, Ohio, USA) according to the manufacturer's directions. Total RNA (1 μg) is reverse transcribed to cDNA with 5 μL of Moloney murine leukemia virus reverse transcriptase (Epicenter, Madison, Wis., USA) as a previously described protocol. […] The relative density of the band is evaluated using AlphaDigiDoc 1201 software (Alpha Innotech Co., San Leandro, Calif., USA). All of the measured PCR products are normalized to the amount of cDNA of GAPDH in each sample."}, "membrane GLUT4": {"test_system": "membrane GLUT4", "test": "Western blotting of membrane GLUT4 in skeletal muscle", "assay_type": "in vivo, C57BL/6J mice", "details": "HFD-fed mice; for muscular membrane GLUT4 protein contents: vs HF group", "description": "as §1\nProtein extractions and immunoblots for the determination of membrane GLUT4, phospho-AMPK (Thr172), and phospho-Akt (Ser 473) proteins are carried out on frozen skeletal muscle and liver tissue from mice, which follows a previous paper. Additionally, membrane GLUT4 is carried out on frozen skeletal muscle from mice, and the total membrane fractions are collected with buffer and centrifuged as a previously described. The protein contents of membrane GLUT4, phospho-AMPK, phospho-Akt, total AMPK, and total Akt are detected by western blotting. Western blotting has been determined as described elsewhere. Subsequently, antibodies are detected using horseradish peroxidase linked to a goat anti-IgG rabbit secondary antibody and visualized using an ECL system. Membrane GLUT4, structural proteins GAPDH and β-actin are purchased from Santa Cruz Biotechnology (Santa Cruz, Calif., USA); phospho-AMPK was obtained from Abcam Inc. (Cambridge, Mass., USA); phospho-Akt, total AMPK, and total Akt are from Cell Signaling Technology, Inc. (Danver Mass., USA); the BCA protein assay kit is from Thermo Scientific (Rockford, Ill., USA); and the ECL reagent kit is from GE Healthcare BioSciences (Buckinghamshire, UK). The secondary antibody antirabbit is from Jackson ImmunoResearch Laboratories, Inc. (West Grove, Pa., USA). The density blotting is analyzed using Alpha Easy FC software (Alpha Innotech Corp., Randburg, South Africa). Structural proteins GAPDH and β-actin are obtained by stripping the nitrocellulose membrane proteins of liver and skeletal muscle, respectively."}, "HFD-fed C57BL/6J mice [1]": {"test_system": "HFD-fed C57BL/6J mice", "test": "Hepatic lipid in HFD-fed mice", "assay_type": "in vivo", "details": "oral gavage daily for 4 weeks", "description": "as §1\nBlood Lipid and Hepatic Lipid. Hepatic lipids are extracted as previously described. Liver sample (0.375 g) is homogenized with 1 mL of distilled water for 5 min for the hepatic lipid extraction and analyzed using a triglycerides kit as used for serum lipids."}, "HFD-fed C57BL/6J mice [2]": {"test_system": "HFD-fed C57BL/6J mice", "test": "Histopathology examination of epididymal WAT and liver tissue", "assay_type": "in vivo", "details": "for ballooning degeneration of hepatocyte: liver tissue; for average area of adipocytes (epididymal WAT): oral gavage daily for 4 weeks", "description": "as §1\nA portion of the collected epididymal WAT and liver tissue is fixed with formalin (200 g/kg) neutral buffered solution and embedded in paraffin. Sections (8 μm) are cut and stained with hematoxylin and eosin. A microscope (Leica, DM2500) and Leica Digital camera (DFC-425-C) are used for microscopic examination and images taken, respectively."}, "HFD-fed C57BL/6J mice [3]": {"test_system": "HFD-fed C57BL/6J mice", "test": "Body weight, food intake and tissue weight in HFD-fed mice", "assay_type": "in vivo", "details": "for Absolute Tissue Weight BAT / Absolute Tissue Weight EWAT / Absolute Tissue Weight Liver / Absolute Tissue Weight MWAT / Absolute Tissue Weight RWAT / Absolute Tissue Weight Skeletal muscle / weight gain: oral gavage daily for 4 weeks; for weight of visceral fat: vs HF group", "description": "as §1\nBody Weight, Food Intake and Tissue Weight. Throughout the embodiment, body weight and food intake are daily recorded at the same time. Body weight gain is defined as the difference between 1 day and the next day. The pellet food is weighed and placed in a cage food container. After 24 h, the remaining food is weighed and the crumbs are collected as much as possible. Based on the difference between 1 day and the next day, the daily food intake is calculated."}}, "data": [{"compound": "CC(C)[C@@H](C)C=C[C@@H](C)[C@H]1CC[C@H]2C3=CCC4C[C@@H](O)CC[C@]4(C)C3=CC[C@]12C", "note": "(stereo partly drawn) [ergostatrien-3β-ol, ergosta-7,9(11),22-trien-3β-ol]", "values": [{"measurement": "mRNA level of SREBP1c", "setting": "SREBP1c mRNA; 10 mg/kg/day", "value": "decreased"}, {"measurement": "mRNA level of SREBP1c", "setting": "SREBP1c mRNA; 20 mg/kg/day", "value": "decreased"}, {"measurement": "mRNA level of SREBP1c", "setting": "SREBP1c mRNA; 40 mg/kg/day", "value": "decreased"}, {"measurement": "enhancement of muscular membrane GLUT4 protein", "setting": "membrane GLUT4; 40 mg/kg/day", "value": "approximately 2.7 fold"}, {"measurement": "muscular membrane GLUT4 protein contents", "setting": "membrane GLUT4; 10 mg/kg/day", "value": "increased"}, {"measurement": "muscular membrane GLUT4 protein contents", "setting": "membrane GLUT4; 20 mg/kg/day", "value": "increased"}, {"measurement": "muscular membrane GLUT4 protein contents", "setting": "membrane GLUT4; 40 mg/kg/day", "value": "increased"}, {"measurement": "Liver Lipids total lipid", "setting": "HFD-fed C57BL/6J mice [1]; 10 mg/kg/day", "value": "72.4 ± 3.7", "unit": "mg/g"}, {"measurement": "Liver Lipids triacylglycerol", "setting": "HFD-fed C57BL/6J mice [1]; 10 mg/kg/day", "value": "57.3 ± 5.5", "unit": "µmol/g"}, {"measurement": "Liver Lipids total lipid", "setting": "HFD-fed C57BL/6J mice [1]; 20 mg/kg/day", "value": "68.0 ± 4.5", "unit": "mg/g"}, {"measurement": "Liver Lipids triacylglycerol", "setting": "HFD-fed C57BL/6J mice [1]; 20 mg/kg/day", "value": "44.5 ± 4.7", "unit": "µmol/g"}, {"measurement": "Liver Lipids total lipid", "setting": "HFD-fed C57BL/6J mice [1]; 40 mg/kg/day", "value": "65.4 ± 4.2", "unit": "mg/g"}, {"measurement": "Liver Lipids triacylglycerol", "setting": "HFD-fed C57BL/6J mice [1]; 40 mg/kg/day", "value": "43.7 ± 6.6", "unit": "µmol/g"}, {"measurement": "ballooning degeneration of hepatocyte", "setting": "HFD-fed C57BL/6J mice [2]; 10 mg/kg/day", "value": "decreases"}, {"measurement": "ballooning degeneration of hepatocyte", "setting": "HFD-fed C57BL/6J mice [2]; 20 mg/kg/day", "value": "decreases"}, {"measurement": "ballooning degeneration of hepatocyte", "setting": "HFD-fed C57BL/6J mice [2]; 40 mg/kg/day", "value": "decreases"}, {"measurement": "average area of adipocytes (epididymal WAT)", "setting": "HFD-fed C57BL/6J mice [2]; 10 mg/kg/day", "value": "4204.0±131.5", "unit": "μm2"}, {"measurement": "average area of adipocytes (epididymal WAT)", "setting": "HFD-fed C57BL/6J mice [2]; 20 mg/kg/day", "value": "3535.7±340.2", "unit": "μm2"}, {"measurement": "average area of adipocytes (epididymal WAT)", "setting": "HFD-fed C57BL/6J mice [2]; 40 mg/kg/day", "value": "3458.9±30.7", "unit": "μm2"}, {"measurement": "food intake (consumption of high-fat diet)", "setting": "HFD-fed C57BL/6J mice [3]; all treated groups compared with HF mice", "value": "similarly"}, {"measurement": "Absolute Tissue Weight BAT", "setting": "HFD-fed C57BL/6J mice [3]; 10 mg/kg/day", "value": "0.160 ± 0.007", "unit": "g"}, {"measurement": "Absolute Tissue Weight EWAT", "setting": "HFD-fed C57BL/6J mice [3]; 10 mg/kg/day", "value": "0.853 ± 0.031", "unit": "g"}, {"measurement": "Absolute Tissue Weight Liver", "setting": "HFD-fed C57BL/6J mice [3]; 10 mg/kg/day", "value": "0.813 ± 0.025", "unit": "g"}, {"measurement": "Absolute Tissue Weight MWAT", "setting": "HFD-fed C57BL/6J mice [3]; 10 mg/kg/day", "value": "0.276 ± 0.032", "unit": "g"}, {"measurement": "Absolute Tissue Weight RWAT", "setting": "HFD-fed C57BL/6J mice [3]; 10 mg/kg/day", "value": "0.281 ± 0.016", "unit": "g"}, {"measurement": "Absolute Tissue Weight Skeletal muscle", "setting": "HFD-fed C57BL/6J mice [3]; 10 mg/kg/day", "value": "0.781 ± 0.034", "unit": "g"}, {"measurement": "weight gain", "setting": "HFD-fed C57BL/6J mice [3]; 10 mg/kg/day", "value": "1.30 ± 0.39", "unit": "g"}, {"measurement": "Absolute Tissue Weight BAT", "setting": "HFD-fed C57BL/6J mice [3]; 20 mg/kg/day", "value": "0.143 ± 0.016", "unit": "g"}, {"measurement": "Absolute Tissue Weight EWAT", "setting": "HFD-fed C57BL/6J mice [3]; 20 mg/kg/day", "value": "0.774 ± 0.057", "unit": "g"}, {"measurement": "Absolute Tissue Weight Liver", "setting": "HFD-fed C57BL/6J mice [3]; 20 mg/kg/day", "value": "0.819 ± 0.025", "unit": "g"}, {"measurement": "Absolute Tissue Weight MWAT", "setting": "HFD-fed C57BL/6J mice [3]; 20 mg/kg/day", "value": "0.276 ± 0.032", "unit": "g"}, {"measurement": "Absolute Tissue Weight RWAT", "setting": "HFD-fed C57BL/6J mice [3]; 20 mg/kg/day", "value": "0.283 ± 0.025", "unit": "g"}, {"measurement": "Absolute Tissue Weight Skeletal muscle", "setting": "HFD-fed C57BL/6J mice [3]; 20 mg/kg/day", "value": "1.167 ± 0.045", "unit": "g"}, {"measurement": "weight gain", "setting": "HFD-fed C57BL/6J mice [3]; 20 mg/kg/day", "value": "1.13 ± 0.20", "unit": "g"}, {"measurement": "Absolute Tissue Weight BAT", "setting": "HFD-fed C57BL/6J mice [3]; 40 mg/kg/day", "value": "0.144 ± 0.013", "unit": "g"}, {"measurement": "Absolute Tissue Weight EWAT", "setting": "HFD-fed C57BL/6J mice [3]; 40 mg/kg/day", "value": "0.736 ± 0.070", "unit": "g"}, {"measurement": "Absolute Tissue Weight Liver", "setting": "HFD-fed C57BL/6J mice [3]; 40 mg/kg/day", "value": "0.796 ± 0.041", "unit": "g"}, {"measurement": "Absolute Tissue Weight MWAT", "setting": "HFD-fed C57BL/6J mice [3]; 40 mg/kg/day", "value": "0.244 ± 0.024", "unit": "g"}, {"measurement": "Absolute Tissue Weight RWAT", "setting": "HFD-fed C57BL/6J mice [3]; 40 mg/kg/day", "value": "0.243 ± 0.041", "unit": "g"}, {"measurement": "Absolute Tissue Weight Skeletal muscle", "setting": "HFD-fed C57BL/6J mice [3]; 40 mg/kg/day", "value": "1.351 ± 0.153", "unit": "g"}, {"measurement": "weight gain", "setting": "HFD-fed C57BL/6J mice [3]; 40 mg/kg/day", "value": "0.37 ± 0.38", "unit": "g"}, {"measurement": "weight of visceral fat", "setting": "HFD-fed C57BL/6J mice [3]; 10 mg/kg/day", "value": "decrease"}, {"measurement": "weight of visceral fat", "setting": "HFD-fed C57BL/6J mice [3]; 20 mg/kg/day", "value": "decrease"}, {"measurement": "weight of visceral fat", "setting": "HFD-fed C57BL/6J mice [3]; 40 mg/kg/day", "value": "decrease"}]}]}
